Patent US11596639B2, “Substituted indole Mcl-1 inhibitors” (Vanderbilt University, priority 2016, dated 2023)

Columns and labels:
[1] = system: H929 human cancer cell lines; assay: Cellular viability / proliferation (Cell TiterGlo, 72 h); assay type: cell-based; settings: Homo sapiens, NCI-H929, 72 h, read-out: GI50 on cellular proliferation of H929 human cancer cell lines, H929 cells, 72 h, Cell TiterGlo, 10% FBS
Description: Cellular Viability of Human Tumor Cell Lines
To evaluate compound effect on cellular proliferation, cells were plated at 1,000 cells/well in 96-well tissue culture plates in a total volume of 90 μL medium supplemented with 10% FBS (Sigma, Saint Louis, Mo.). 24 hours later, 10 μL of compound (in a 2-fold serial dilution) is added to the cells for a top concentration of 50 μM and a final DMSO concentration <1%. After 72 hours, 50 μL of Cell TiterGlo (Promega, Madison, Wis., USA) reagent is added to each well and plates are incubated at room temperature, in the dark, for 30 minutes. Luminescence is measured on a BioTek Cytation 3. Luminescence values are imported into a template in XLFit (Guildford, Surrey, UK) that uses a four-parameter fit to generate an IC50 value for each compound dilution series on the plate.

Mcl-1 = Mcl-1 (Homo sapiens (Human), UniProt Q07820); assay: Fluorescence polarization anisotropy (FPA) competition assay, FITC-Bak or FITC-Bim BH3 peptide; assay type: binding; settings: read-out: Ki for Inhibition of Mcl-1 by FPA assay
Sequence of Mcl-1 (Q07820 172-327): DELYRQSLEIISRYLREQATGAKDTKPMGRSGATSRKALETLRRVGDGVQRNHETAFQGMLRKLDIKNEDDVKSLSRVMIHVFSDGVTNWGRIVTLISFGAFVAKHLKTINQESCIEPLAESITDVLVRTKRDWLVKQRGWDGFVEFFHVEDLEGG

Row | SMILES | GI50 [1] | Ki (Mcl-1)
1 | Cc1cc(OCCCc2c3n(c4c(-c5c(C)nn(C)c5C)c(Cl)ccc24)[C@H](C)CN(c2cccc4cc(C(=O)O)n(Cc5ccncc5)c24)C3=O)cc(C)c1Cl [Example 248, 7-[(4R)-7-chloro-10-[3-(4-chloro-3,5-dimethyl-phenoxy)propyl]-4-methyl-1-oxo-6-(1,3,5-trimethylpyrazol-4-yl)-3,4-dihydropyrazino[1,2-a]indol-2-yl]-1-(4-pyridylmethyl)indole-2-carboxylic acid] | 570 nM | < 1 nM
2 | Cc1cc(OCCCc2c3n(c4c(-c5c(C)nn(C)c5C)c(Cl)ccc24)CCCN(Cc2cc(C(=O)O)cc(N4CCN(S(=O)(=O)C5CC5)CC4)n2)C3=O)cc(C)c1Cl [Example 47, 2-((8-Chloro-11-(3-(4-chloro-3,5-dimethylphenoxy)propyl)-1-oxo-7-(1,3,5-trimethyl-1H-pyrazol-4-yl)-4,5-dihydro-1H-[1,4]diazepino[1,2-a]indol-2(3H)-yl)methyl)-6-(4-(cyclopropylsulfonyl)piperazin-1-yl)isonicotinic acid] |  | 19 nM
3 | Cc1cc(CCCCc2c(C(=O)N3CCN(c4ccc(C(=O)O)nc4)CC3)n(Cc3cccnc3)c3c(-c4c(C)nn(C)c4C)c(Cl)ccc23)cc(C)c1Cl [Example 737, 5-(4-(6-Chloro-3-(4-(4-chloro-3,5-dimethylphenyl)butyl)-1-(pyridin-3-ylmethyl)-7-(1,3,5-trimethyl-1H-pyrazol-4-yl)-1H-indole-2-carbonyl)piperazin-1-yl)picolinic acid] |  | 140 nM
4 | Cc1cc(OCCCc2c3n(c4c(-c5c(C)nn(C)c5C)c(Cl)ccc24)[C@H](C)CN(c2cnc4ccc(C(=O)O)cn24)C3=O)cc(C)c1Cl [Example 473, (R)-3-(7-chloro-10-(3-(4-chloro-3,5-dimethylphenoxy)propyl)-4-methyl-1-oxo-6-(1,3,5-trimethyl-1H-pyrazol-4-yl)-3,4-dihydropyrazino[1,2-a]indol-2(1H)-yl)imidazo[1,2-a]pyridine-6-carboxylic acid] |  | 4.1 nM
5 | Cc1cc(OCCCc2c3n(c4c(-c5c(C)nn(C)c5C)c(Cl)ccc24)CCCN(c2cc(C(=O)O)c4c(cnn4C)c2)C3=O)cc(C)c1Cl [Example 85, 5-[8-Chloro-11-[3-(4-chloro-3,5-dimethyl-phenoxy)propyl]-1-oxo-7-(1,3,5-trimethylpyrazol-4-yl)-4,5-dihydro-3H-[1,4]diazepino[1,2-a]indol-2-yl]-1-methyl-indazole-7-carboxylic acid] |  | 1.5 nM
6 | Cc1cc(OCCCc2c3n(c4c(-c5c(C)cccc5C)c(Cl)ccc24)CCCN(c2cc(C(=O)O)c4ccn(C)c4c2)C3=O)cc(C)c1Cl [Example 91, 6-[8-Chloro-11-[3-(4-chloro-3,5-dimethyl-phenoxy)propyl]-7-(2,6-dimethylphenyl)-1-oxo-4,5-dihydro-3H-[1,4]diazepino[1,2-a]indol-2-yl]-1-methyl-indole-4-carboxylic acid] |  | 7.3 nM
7 | Cc1cc(OCCCc2c3n(c4c(-c5c(C)nn(C)c5C)c(Cl)ccc24)[C@H](C)CN(c2ccc(C(=O)O)c(Cl)c2)C3=O)cc(C)c1Cl [Example 35, (R)-2-chloro-4-(7-chloro-10-(3-(4-chloro-3,5-dimethylphenoxy)propyl)-4-methyl-1-oxo-6-(1,3,5-trimethyl-1H-pyrazol-4-yl)-3,4-dihydropyrazino[1,2-a]indol-2(1H)-yl)benzoic acid] |  | 1.5 nM
8 | Cc1cc(OCCCc2c3n(c4c(-c5c(C)nn(C)c5C)c(Cl)ccc24)[C@H](C)CN(c2cn(C)c4ccc(C(F)(F)F)cc24)C3=O)cc(C)c1Cl (single isomer, unassigned) [Example 200] |  | 6.6 nM
9 | Cc1cc(OCCCc2c3n(c4c(-c5c(C)nn(C)c5C)c(Cl)ccc24)[C@H](C)CN(c2cn(C)c4ccc(C(F)(F)F)cc24)C3=O)cc(C)c1Cl (single isomer, unassigned) [Example 193] |  | 3.9 nM
10 | Cc1cc(OCCCc2c(C(=O)NC3CCC(C(=O)O)CC3)[nH]c3c(-c4c(C)ncnc4C)c(Cl)ccc23)cc(C)c1Cl (single isomer, unassigned) [Example 746, 4-(6-Chloro-3-(3-(4-chloro-3,5-dimethylphenoxy)propyl)-7-(4,6-dimethylpyrimidin-5-yl)-1H-indole-2-carboxamido)cyclohexane-1-carboxylic acid] |  | 5.2 nM
11 | COc1ccc(N2C[C@@H](C)n3c(c(CCCOc4cc(C)c(Cl)c(C)c4)c4ccc(Cl)c(-c5c(C)nn(C)c5C)c43)C2=O)c2c1c(C)c(C(=O)O)n2C [Example 351, (R)-7-(7-Chloro-10-(3-(4-chloro-3,5-dimethylphenoxy)propyl)-4-methyl-1-oxo-6-(1,3,5-trimethyl-1H-pyrazol-4-yl)-3,4-dihydropyrazino[1,2-a]indol-2(1H)-yl)-4-methoxy-1,3-dimethyl-1H-indole-2-carboxylic acid] |  | < 1 nM
12 | Cc1cc(OCCCc2c3n(c4c(-c5c(C)cccc5C)c(Cl)ccc24)CCCNC3=O)cc(C)c1Cl [Example 86, 8-Chloro-11-(3-(4-chloro-3,5-dimethylphenoxy)propyl)-7-(2,6-dimethylphenyl)-2,3,4,5-tetrahydro-1H-[1,4]diazepino[1,2-a]indol-1-one] |  | 47 nM
13 | Cc1cc(CCCCc2c(C(=O)N3CCN(c4ccccc4C(=O)O)CC3)[nH]c3c(-c4c(C)nn(C)c4C)c(Cl)ccc23)cc(C)c1Cl [Example 744, 2-(4-(6-Chloro-3-(4-(4-chloro-3,5-dimethylphenyl)butyl)-7-(1,3,5-trimethyl-1H-pyrazol-4-yl)-1H-indole-2-carbonyl)piperazin-1-yl)benzoic acid] |  | 30 nM
14 | Cc1cc(OCCCc2c3n(c4c(-c5c(C)nn(C)c5C)c(Cl)ccc24)CCCN(c2cc(C(=O)O)c4c(c2)nnn4C)C3=O)cc(C)c1Cl [Example 5, 6-[8-Chloro-11-[3-(4-chloro-3,5-dimethyl-phenoxy)propyl]-1-oxo-7-(1,3,5-trimethylpyrazol-4-yl)-4,5-dihydro-3H-[1,4]diazepino[1,2-a]indol-2-yl]-3-methyl-benzotriazole-4-carboxylic acid] |  | 2.7 nM
15 | Cc1nn(C)c(C)c1-c1c(Cl)ccc2c(CCCOCC3CC3)c3n(c12)[C@H](C)CN(c1cn(C)c2ccc(C(=O)O)cc12)C3=O [Example 404, (R)-3-(7-chloro-10-(3-(cyclopropylmethoxy)propyl)-4-methyl-1-oxo-6-(1,3,5-trimethyl-1H-pyrazol-4-yl)-3,4-dihydropyrazino[1,2-a]indol-2(1H)-yl)-1-methyl-1H-indole-5-carboxylic acid] |  | 44 nM
16 | CC(=O)N1CCN(c2cc(C(=O)O)cc(CN3CCCn4c(c(CCCOc5cc(C)c(Cl)c(C)c5)c5ccc(Cl)c(-c6c(C)nn(C)c6C)c54)C3=O)n2)CC1 [Example 17, 2-(4-acetylpiperazin-1-yl)-6-((8-chloro-11-(3-(4-chloro-3,5-dimethylphenoxy)propyl)-1-oxo-7-(1,3,5-trimethyl-1H-pyrazol-4-yl)-4,5-dihydro-1H-[1,4]diazepino[1,2-a]indol-2(3H)-yl)methyl)isonicotinic acid] |  | 10 nM
17 | CC[C@@H]1Cn2c(c(CCCOc3cc(C)c(Cl)c(C)c3)c3ccc(Cl)c(-c4c(C)nn(C)c4C)c32)C(=O)N1 [Example 24, (R)-7-chloro-10-(3-(4-chloro-3,5-dimethylphenoxy)propyl)-3-ethyl-6-(1,3,5-trimethyl-1H-pyrazol-4-yl)-3,4-dihydropyrazino[1,2-a]indol-1(2H)-one] |  | 25 nM
18 | Cc1cc(OCCCc2c3n(c4c(-c5c(C)ncnc5C)c(Cl)ccc24)[C@H](C)CN(c2cccc4cccc(C(=O)O)c24)C3=O)cc(C)c1Cl [Example 255, 8-[(4R)-7-chloro-10-[3-(4-chloro-3,5-dimethyl-phenoxy)propyl]-6-(4,6-dimethylpyrimidin-5-yl)-4-methyl-1-oxo-3,4-dihydropyrazino[1,2-a]indol-2-yl]naphthalene-1-carboxylic acid] |  | 1.3 nM
19 | Cc1cc(OCCCc2c(C(=O)N(C)c3ccc(C(=O)O)cc3)n(CCN3CCOCC3)c3c(-c4c(C)nn(C)c4C)c(Cl)ccc23)cc(C)c1Cl [Example 731, 4-[[6-Chloro-3-[3-(4-chloro-3,5-dimethyl-phenoxy)propyl]-1-(2-morpholinoethyl)-7-(1,3,5-trimethylpyrazol-4-yl)indole-2-carbonyl]-methyl-amino]benzoic acid] |  | > 200 nM
20 | Cc1ccc(S(=O)(=O)N2CCN(c3cc(C(=O)O)cc(CN4CCCn5c(c(CCCOc6cc(C)c(Cl)c(C)c6)c6ccc(Cl)c(-c7c(C)nn(C)c7C)c65)C4=O)n3)CC2)o1 [Example 27, 2-((8-chloro-11-(3-(4-chloro-3,5-dimethylphenoxy)propyl)-1-oxo-7-(1,3,5-trimethyl-1H-pyrazol-4-yl)-4,5-dihydro-1H-[1,4]diazepino[1,2-a]indol-2(3H)-yl)methyl)-6-(4-((5-methylfuran-2-yl)sulfonyl)piperazin-1-yl)isonicotinic acid] |  | 39 nM
21 | Cc1cc(CCCCc2c(C(=O)N3CCN(c4ccccc4C(=O)O)CC3)n(Cc3cccnc3)c3c(-c4c(C)nn(C)c4C)c(Cl)ccc23)cc(C)c1Cl [Example 739, 2-(4-(6-Chloro-3-(4-(4-chloro-3,5-dimethylphenyl)butyl)-1-(pyridin-3-ylmethyl)-7-(1,3,5-trimethyl-1H-pyrazol-4-yl)-1H-indole-2-carbonyl)piperazin-1-yl)benzoic acid] |  | 73 nM
